Measurements reported in PubChem BioAssay (NCI).
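A five-concentration, 48-hour dose response in 96-well plates underlies each endpoint, interpolated linearly between surrounding concentrations. GI50 is the concentration that inhibits growth by half. Definition used: TGI = concentration required for complete inhibition of growth.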

Experiments:
Experiment in all cases: NCI-60 cell line screen, 48 h
A549 NSCLC = test system: A549 NSCLC
CCRF-CEM leukemia = test system: CCRF-CEM leukemia
HCT-116 colon = test system: HCT-116 colon
HOP-92 NSCLC = test system: HOP-92 NSCLC
K-562 leukemia = test system: K-562 leukemia
KM12 colon = test system: KM12 colon
NCI-H226 lung = test system: NCI-H226 lung
RXF 393 renal = test system: RXF 393 renal
UACC-257 melanoma = test system: UACC-257 melanoma
UACC-62 melanoma = test system: UACC-62 melanoma

| Structure (SMILES) | GI50 (A549 NSCLC) [µM] | TGI (A549 NSCLC) [µM] | GI50 (CCRF-CEM leukemia) [µM] | TGI (CCRF-CEM leukemia) [µM] | GI50 (HCT-116 colon) [µM] | TGI (HCT-116 colon) [µM] | GI50 (HOP-92 NSCLC) [µM] | TGI (HOP-92 NSCLC) [µM] | GI50 (K-562 leukemia) [µM] | TGI (K-562 leukemia) [µM] | GI50 (KM12 colon) [µM] | TGI (KM12 colon) [µM] | GI50 (NCI-H226 lung) [µM] | TGI (NCI-H226 lung) [µM] | GI50 (RXF 393 renal) [µM] | TGI (RXF 393 renal) [µM] | GI50 (UACC-257 melanoma) [µM] | TGI (UACC-257 melanoma) [µM] | GI50 (UACC-62 melanoma) [µM] | TGI (UACC-62 melanoma) [µM] |
| --- | --- | --- | --- | --- | --- | --- | --- | --- | --- | --- | --- | --- | --- | --- | --- | --- | --- | --- | --- | --- |
| C=C(C)[C@@H]1CC[C@]2(C)[C@H](CC=C3[C@@H]4[C@H](C)[C@@H](C)CC[C@]4(CO)CC[C@]32C)[C@@]1(C)CCCN | 1.59 | 5.11 | 1.31 | 5.26 | 0.807 | 1.54 | 1.04 | 3.46 | 1.22 | 3.63 | 0.908 | 1.65 | 6.72 | 18.3 | 0.826 | 1.59 | 1.04 | 2.21 | 5.82 | 12.6 |
| N#CC1CCc2c(c(-c3cn[nH]c3C(F)(F)F)nc3c(F)cc4[nH]ncc4c23)C1 (stereo not given) | 21.2 | > 100 | 4.06 | > 100 | 3.15 | 19.6 | 4.42 | 26.5 | 9.53 | > 100 | 3.34 | 41.9 | 16 | > 100 | 2.39 | 7.3 | 12.9 | 74.5 | 3.43 | 11.5 |
| S=c1[nH]nc(SCc2ccccc2Cl)c2[nH]cnc12 | – | > 100 | – | > 100 | – | > 100 | – | > 100 | – | > 100 | – | > 100 | – | > 100 | – | > 100 | – | > 100 | – | > 100 |
| CCCNc1cccc(-n2ncc3c(N/N=C/c4ccncc4)ncnc32)c1 | > 7.61 | > 25 | > 25 | > 25 | 1.82 | > 25 | 9.32 | > 25 | 1.12 | > 25 | 1.77 | > 25 | > 16.5 | > 25 | 1.07 | > 25 | > 25 | > 25 | > 7.76 | > 25 |
| CCCCN(CCCC)C(=O)C(=O)CC(=O)/C=C/c1ccccc1 | – | > 100 | – | > 100 | – | > 100 | – | > 100 | – | > 100 | – | > 100 | – | > 100 | – | > 100 | – | > 100 | – | > 100 |
| COc1ccc(S(=O)(=O)n2c3ccccc3n3ncc(-c4nnc(C)o4)c23)cc1 | 0.768 | > 100 | 0.431 | > 100 | 0.387 | 24 | 0.365 | 57.3 | 0.314 | > 100 | 0.465 | 19.9 | 10.8 | > 69.2 | 0.319 | 3.97 | 22.4 | > 87 | 0.609 | 32.5 |
| C[C@H]1CCC/C=C/[C@@H]2C[C@H](O)C[C@H]2[C@H](O)[C@@H](SC2OC(CO)C(O)C(O)C2O)CC(=O)O1 (stereo not given in full) | > 100 | > 100 | 61.2 | > 100 | > 100 | > 100 | > 100 | > 100 | > 100 | > 100 | 30.3 | 68 | 36.2 | > 100 | 20 | 55.8 | 44.5 | > 100 | 33.6 | > 100 |
